Results reported in publication doi:10.1101/2025.11.20.689572v1 (biorxiv, 2025).
Like-named read-outs stand apart in the source and are kept apart here.

Columns and labels:
CHRM3 = CHRM3 (Homo sapiens, UniProt P20309); experiment: cell-based; parameters: species or system HEK293; TRUPATH BRET2 G-protein dissociation; antagonist mode against agonist EC80; settings: agonist mode, % of control agonist
HTR1A = molecular target: T1, HTR1A (Homo sapiens, UniProt P08908); experiment: cell-based; parameters: species or system HEK293; TRUPATH BRET2 G-protein dissociation; antagonist mode against agonist EC80; settings: agonist mode, % of control agonist
T1 sequence (P08908 1-422): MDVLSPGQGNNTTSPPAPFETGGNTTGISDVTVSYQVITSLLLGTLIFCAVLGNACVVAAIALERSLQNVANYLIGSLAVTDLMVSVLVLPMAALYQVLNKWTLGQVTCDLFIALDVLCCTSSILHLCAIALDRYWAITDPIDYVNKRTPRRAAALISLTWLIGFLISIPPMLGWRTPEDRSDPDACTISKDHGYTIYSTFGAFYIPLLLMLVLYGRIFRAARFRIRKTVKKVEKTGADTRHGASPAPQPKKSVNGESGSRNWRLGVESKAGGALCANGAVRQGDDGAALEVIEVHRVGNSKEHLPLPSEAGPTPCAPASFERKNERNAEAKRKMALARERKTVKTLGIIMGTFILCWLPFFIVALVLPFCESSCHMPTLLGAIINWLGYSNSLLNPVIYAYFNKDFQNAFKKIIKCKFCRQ

CHRM2 = molecular target: T2, CHRM2 (Homo sapiens, UniProt P08172); experiment: cell-based; parameters: species or system HEK293; TRUPATH BRET2 G-protein dissociation; antagonist mode against agonist EC80; settings: agonist mode, % of control agonist
T2 sequence (P08172 1-466): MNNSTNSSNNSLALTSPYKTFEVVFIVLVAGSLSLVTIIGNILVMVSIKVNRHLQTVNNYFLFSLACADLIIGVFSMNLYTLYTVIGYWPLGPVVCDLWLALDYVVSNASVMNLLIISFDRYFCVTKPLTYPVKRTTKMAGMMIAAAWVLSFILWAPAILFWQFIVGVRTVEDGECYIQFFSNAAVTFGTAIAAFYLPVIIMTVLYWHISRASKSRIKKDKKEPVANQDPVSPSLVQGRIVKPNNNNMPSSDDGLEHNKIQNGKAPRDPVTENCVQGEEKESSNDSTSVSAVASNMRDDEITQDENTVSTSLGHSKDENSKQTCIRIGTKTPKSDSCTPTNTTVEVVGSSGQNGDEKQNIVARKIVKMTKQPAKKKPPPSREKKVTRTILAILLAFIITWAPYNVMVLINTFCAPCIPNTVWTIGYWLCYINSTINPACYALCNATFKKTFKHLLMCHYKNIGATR

HRH4 = HRH4 (Homo sapiens, UniProt Q9H3N8); experiment: cell-based; parameters: PRESTO-Tango beta-arrestin2 recruitment, luciferase luminescence, concentration-response; settings: HTLA, Assay=Tango, agonist mode, % of control agonist
Experimental: (§1) Off-target agonism across the human GPCRome was profiled using PRESTO-Tango, following established protocols with minor adaptations [10]–[12]. […] After ~6 h recovery, cells were transfected with 20 ng plasmid DNA per well and incubated overnight. The next day, 10 µL of test compound (prepared in DMEM + 1% dFBS) was added, and plates were incubated overnight. Media and compounds were removed, and 20 µL per well of Bright-Glo luciferase reagent diluted in assay buffer (Hank’s Balanced Salt Solution (HBSS), 20 mM HEPES, pH 7.4) was added. After 20 min at room temperature (dark), luminescence was recorded. Each plate included the dopamine D2 receptor (DRD2) stimulated with 100 nM quinpirole as a positive control. For the GPCRome screen, each receptor was tested in quadruplicate at 0 and 10 µM compound (final). Responses were expressed as fold change relative to the basal (0 µM) condition. Follow-up concentration–response assays were performed under identical conditions except that serial dilutions of compounds (maximum ~30 µM, final) were added to generate full concentration–response curves.

CHRM1 = molecular target: T3, CHRM1 (Homo sapiens, UniProt P11229); experiment: cell-based; parameters: PRESTO-Tango beta-arrestin2 recruitment, luciferase luminescence, concentration-response; settings: HTLA, Assay=Tango, agonist mode, % of control agonist
T3 sequence (P11229 1-460): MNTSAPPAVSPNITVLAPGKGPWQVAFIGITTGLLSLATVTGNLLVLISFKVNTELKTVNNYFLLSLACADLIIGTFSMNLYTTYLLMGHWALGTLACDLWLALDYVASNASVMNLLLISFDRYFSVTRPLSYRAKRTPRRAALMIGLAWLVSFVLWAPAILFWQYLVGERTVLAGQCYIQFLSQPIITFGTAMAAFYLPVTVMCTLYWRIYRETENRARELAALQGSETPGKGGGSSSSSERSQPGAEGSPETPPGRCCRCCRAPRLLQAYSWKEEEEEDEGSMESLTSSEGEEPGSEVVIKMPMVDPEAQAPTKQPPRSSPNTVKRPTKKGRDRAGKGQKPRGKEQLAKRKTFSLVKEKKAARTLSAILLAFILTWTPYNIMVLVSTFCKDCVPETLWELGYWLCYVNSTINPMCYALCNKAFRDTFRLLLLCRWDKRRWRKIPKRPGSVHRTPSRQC
Experimental: as §1

D3 = molecular target: T4, D3 (Homo sapiens, UniProt P35462); experiment: competitive radioligand binding, HEK293 membranes
T4 construct: gene DRD3; full-length receptor; HEK293 cell membranes
Text: competitive radioligand binding, HEK293 membranes on D3

5-HT1A = molecular target: T5, 5-HT1A (Homo sapiens, UniProt P08908); experiment: TRUPATH BRET2 G protein dissociation, HEK293; format: cell-based; settings: HBSS, […] HEPES pH […] °C; agonist mode
T5 construct: gene HTR1A; full-length receptor; HEK293 with TRUPATH sensors

M2 = molecular target: T6, M2 (Homo sapiens, UniProt P08172); experiment: TRUPATH BRET2 G protein dissociation, HEK293; format: cell-based; settings: HBSS, […] HEPES pH […] °C; agonist mode
T6 construct: gene CHRM2; full-length receptor; HEK293 with TRUPATH sensors (function)
T6 sequence (P08172 1-466): T2 sequence (P08172 1-466)

[1] = HEK293, read-out: N-Desmethyl Xanomeline, Assay=Gi2
[2] = HEK293, read-out: N-Desmethyl Xanomeline, Assay=GoA
[3] = HEK293, read-out: N-Desmethyl Xanomeline, Assay=GoB
[4] = read-out: N-Desmethyl Xanomeline
[5] = HEK293, read-out: Xanomeline, Assay=Gi2
[6] = HEK293, read-out: Xanomeline, Assay=GoA
[7] = HEK293, read-out: Xanomeline, Assay=GoB

Chain of CHRM3 (P20309 whole entry): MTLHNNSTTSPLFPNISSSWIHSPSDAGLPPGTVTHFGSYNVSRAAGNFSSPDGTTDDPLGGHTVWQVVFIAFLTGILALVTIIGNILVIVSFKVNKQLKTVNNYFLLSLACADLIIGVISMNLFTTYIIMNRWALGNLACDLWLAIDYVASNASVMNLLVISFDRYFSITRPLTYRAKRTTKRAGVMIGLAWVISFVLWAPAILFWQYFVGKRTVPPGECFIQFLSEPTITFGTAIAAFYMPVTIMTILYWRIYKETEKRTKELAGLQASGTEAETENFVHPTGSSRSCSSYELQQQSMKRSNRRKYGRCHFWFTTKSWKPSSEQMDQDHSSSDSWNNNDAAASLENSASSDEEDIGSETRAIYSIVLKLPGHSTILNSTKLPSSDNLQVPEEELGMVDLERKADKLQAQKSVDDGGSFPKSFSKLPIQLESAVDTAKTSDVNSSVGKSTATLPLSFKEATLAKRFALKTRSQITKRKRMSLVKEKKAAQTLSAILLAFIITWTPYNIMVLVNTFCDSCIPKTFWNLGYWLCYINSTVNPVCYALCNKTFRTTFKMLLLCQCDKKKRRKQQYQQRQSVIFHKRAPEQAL
Chain of HRH4 (Q9H3N8 whole entry): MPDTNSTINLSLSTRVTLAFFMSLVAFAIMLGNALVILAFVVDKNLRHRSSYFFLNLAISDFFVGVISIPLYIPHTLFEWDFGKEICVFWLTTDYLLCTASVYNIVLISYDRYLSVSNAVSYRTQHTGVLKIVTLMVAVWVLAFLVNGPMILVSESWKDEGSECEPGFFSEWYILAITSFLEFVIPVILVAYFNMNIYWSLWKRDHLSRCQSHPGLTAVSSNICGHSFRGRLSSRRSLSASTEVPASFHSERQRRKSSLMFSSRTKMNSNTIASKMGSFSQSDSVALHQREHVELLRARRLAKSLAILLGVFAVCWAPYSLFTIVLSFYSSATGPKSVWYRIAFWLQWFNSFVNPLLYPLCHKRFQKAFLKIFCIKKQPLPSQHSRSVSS
T4 sequence (P35462 whole entry): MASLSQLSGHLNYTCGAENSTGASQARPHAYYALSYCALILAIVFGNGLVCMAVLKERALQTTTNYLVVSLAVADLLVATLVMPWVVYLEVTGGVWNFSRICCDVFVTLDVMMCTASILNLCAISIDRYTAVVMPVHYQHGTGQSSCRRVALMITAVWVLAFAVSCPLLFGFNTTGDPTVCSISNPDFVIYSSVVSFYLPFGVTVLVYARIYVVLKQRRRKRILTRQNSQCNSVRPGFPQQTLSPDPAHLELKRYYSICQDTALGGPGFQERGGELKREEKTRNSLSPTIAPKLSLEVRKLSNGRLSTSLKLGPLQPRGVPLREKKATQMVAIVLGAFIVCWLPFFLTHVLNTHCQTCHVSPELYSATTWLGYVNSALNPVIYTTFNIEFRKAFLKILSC

**Q.** How did the Emax (CHRM3; HEK293, read-out: N-Desmethyl Xanomeline, Assay=Gq) turn out when `CCCCCCOc1nsnc1C1=CCCNC1` [N-desmethylxanomeline] was run?
**A.** The Emax was 62.4%.

**Q.** What about the Emax (HTR1A; [1]) of the same molecule?
**A.** Its Emax is 103%.

**Q.** What about the Emax (HTR1A; [2]) of the same molecule?
**A.** Its Emax is 97.4%.

**Q.** And the Emax (HTR1A; [3])?
**A.** Its Emax is 98.8%.

**Q.** And the Emax (CHRM2; HEK293, read-out: N-Desmethyl Xanomeline, Assay=Gi1)?
**A.** Its Emax is 87.3%.

**Q.** What about the Emax (CHRM2; [1]) of the same molecule?
**A.** Its Emax is 88.1%.

**Q.** What about the Emax (CHRM2; HEK293, read-out: N-Desmethyl Xanomeline, Assay=Gi3) of the same molecule?
**A.** Its Emax is 65.4%.

**Q.** And the Emax (CHRM2; [2])?
**A.** Its Emax is 101%.

**Q.** What about the Emax (CHRM2; [3]) of the same molecule?
**A.** Its Emax is 95.1%.

**Q.** And the Emax (CHRM2; HEK293, read-out: N-Desmethyl Xanomeline, Assay=Gz)?
**A.** The Emax was 81.5%.

**Q.** What about the Emax (HRH4; [4]) of the same molecule?
**A.** Its Emax is 10.4%.

**Q.** What about the Emax (CHRM1; [4]) of the same molecule?
**A.** Its Emax is 28.4%.

**Q.** What about the Ki (D3) of the same molecule?
**A.** The Ki was 0.646 µM.

**Q.** What about the EC50 (5-HT1A) of the same molecule?
**A.** Its EC50 is “full or partial agonists at 5-HT1D and 5-HT1A in a transducer-dependent fashion”.

**Q.** What about the EC50 (M2) of the same molecule?
**A.** Its EC50 is “differential activation of M1-M5 muscarinic receptor transducers”.

**Q.** How did the Emax (CHRM3; HEK293, read-out: Xanomeline, Assay=Gq) turn out when `CCCCCCOc1nsnc1C1=CCCN(C)C1` [Xanomeline] was run?
**A.** The Emax was 65.6%.

**Q.** What about the Emax (HTR1A; [5]) of the same molecule?
**A.** The Emax was 99.6%.

**Q.** What about the Emax (HTR1A; [6]) of the same molecule?
**A.** The Emax was 94.5%.

**Q.** What about the Emax (HTR1A; [7]) of the same molecule?
**A.** The Emax was 91.7%.

**Q.** And the Emax (CHRM2; HEK293, read-out: Xanomeline, Assay=Gi1)?
**A.** Its Emax is 64.6%.

**Q.** What about the Emax (CHRM2; [5]) of the same molecule?
**A.** The Emax was 81.2%.

**Q.** What about the Emax (CHRM2; HEK293, read-out: Xanomeline, Assay=Gi3) of the same molecule?
**A.** The Emax was 30.2%.

**Q.** What about the Emax (CHRM2; [6]) of the same molecule?
**A.** The Emax was 99.1%.

**Q.** And the Emax (CHRM2; [7])?
**A.** The Emax was 97.2%.

**Q.** What about the Emax (CHRM2; HEK293, read-out: Xanomeline, Assay=Gz) of the same molecule?
**A.** The Emax was 60.4%.

**Q.** What about the Emax (HRH4; read-out: Xanomeline) of the same molecule?
**A.** The Emax was 37.3%.

**Q.** And the Emax (CHRM1; read-out: Xanomeline)?
**A.** Its Emax is 67%.

**Q.** And the Ki (D3)?
**A.** The Ki was 0.251 µM.

**Q.** And the EC50 (5-HT1A)?
**A.** Its EC50 is “full or partial agonists at 5-HT1D and 5-HT1A in a transducer-dependent fashion”.

**Q.** And the EC50 (M2)?
**A.** Its EC50 is “differential activation of M1-M5 muscarinic receptor transducers”.
